Results taken from US5210193A, “Piperazine derivatives” (American Cyanamid Company, priority 1990, dated 1993).
In brackets after ≈: the same amount, converted by molar mass. Like-named read-outs stand apart in the source and are kept apart here.

What was measured:
Test in all cases: in vitro antibacterial MIC, agar plate dilution
Format in all cases: cell-based
Conditions in all cases: 35° C.
[1] = tested on: Escherichia coli ATCC 25922
Procedure: (§1) The in vitro antimicrobial spectrum of the compounds of ths invention were determined by the agar plate dilution method with Mueller-Hinton agar and an inoculum of each test organism of approximately 10^4 colony forming units delivered by the Steers replicating device. The minimal inhibitory concentration (MIC) in mcg/ml is defined as the lowest concentration of test compound that inhibited visible growth after 18 hours incubation at 35° C. Results are given in Table I, with the test compounds identified by the number of their hereinafter described examples.

[2] = tested on: Escherichia coli CMC 84-11
Procedure: as §1

Escherichia coli LL 311 = tested on: Escherichia coli LL 311
Procedure: as §1

[3] = tested on: Morganella morganii CMC 84-37
Procedure: as §1

[4] = tested on: Proteus rettgeri CMC 84-41
Procedure: as §1

[5] = tested on: Pseudomonas aeruginosa LL-1244
Procedure: as §1

[6] = tested on: Pseudomonas aeruginosa VGH 84-4
Procedure: as §1

[7] = tested on: Serratia marcescens K 84-18
Procedure: as §1

[8] = tested on: Serratia marcescens VGH 84-30
Procedure: as §1

[9] = tested on: Staphylococcus aureus ATTC 29213
Procedure: as §1

[10] = tested on: Staphylococcus aureus Smith
Procedure: as §1

[11] = tested on: Staphylococcus aureus VGH 84-45
Procedure: as §1

[12] = tested on: Streptococcus faecalis UCI 85-19
Procedure: as §1

[13] = tested on: Streptococcus faecalis VGH 84-65
Procedure: as §1

[14] = Escherichia coli, ATCC25922, 18 h, read-out: MIC
[15] = Escherichia coli, CMC8411, 18 h, read-out: MIC
[16] = Escherichia coli, LL311, 18 h, read-out: MIC
[17] = Morganella morganii, CMC8437, 18 h, read-out: MIC
[18] = Providencia rettgeri, CMC8441, 18 h, read-out: MIC
[19] = Pseudomonas aeruginosa, LL1244, 18 h, read-out: MIC
[20] = Pseudomonas aeruginosa, VGH844, 18 h, read-out: MIC
[21] = Serratia marcescens, K8418, 18 h, read-out: MIC
[22] = Serratia marcescens, VGH8430, 18 h, read-out: MIC
[23] = Staphylococcus aureus, ATTC29213, 18 h, read-out: MIC
[24] = Staphylococcus aureus, 18 h, read-out: MIC
[25] = Staphylococcus aureus, VGH8445, 18 h, read-out: MIC
[26] = Enterococcus faecalis, UCI8519, 18 h, read-out: MIC
[27] = Enterococcus faecalis, VGH8465, 18 h, read-out: MIC

| MIC [1, 14] [µg/mL] | MIC [2, 15] [µg/mL] | MIC (Escherichia coli LL 311; [16]) [µg/mL] | MIC [3, 17] [µg/mL] | MIC [4, 18] [µg/mL] | MIC [5, 19] [µg/mL] | MIC [6, 20] [µg/mL] | MIC [7, 21] [µg/mL] | MIC [8, 22] [µg/mL] | MIC [9, 23] [µg/mL] | MIC [10, 24] [µg/mL] | MIC [11, 25] [µg/mL] | MIC [12, 26] [µg/mL] | MIC [13, 27] [µg/mL] | MIC ([1]; 18 hours) [µg/mL] | MIC ([2]; 18 hours) [µg/mL] | MIC ([10]; 18 hours) [µg/mL] | SMILES | other results |
| --- | --- | --- | --- | --- | --- | --- | --- | --- | --- | --- | --- | --- | --- | --- | --- | --- | --- | --- |
| 0.25 (≈ 0.582 µM) | 0.12 (≈ 0.279 µM) | 0.25 (≈ 0.582 µM) | 1 (≈ 2.33 µM) | 1 (≈ 2.33 µM) | 32 (≈ 74.5 µM) | 8 (≈ 18.6 µM) | 2 (≈ 4.66 µM) | 16 (≈ 37.3 µM) | 0.5 (≈ 1.16 µM) | 0.12 (≈ 0.279 µM) | 0.12 (≈ 0.279 µM) | 8 (≈ 18.6 µM) | 8 (≈ 18.6 µM) |  |  |  | COCC1CN(c2cc3c(cc2F)c(=O)c(C(=O)O)cn3-c2ccc(F)cc2)CCN1 (stereo not drawn) [Example 82, 6-Fluoro-1-(4-fluorophenyl)-1,4-dihydro-7-(3-(methoxy-methyl)-1-piperazinyl]-4-oxo-3-cuinolinecarboxylic acid] |  |
|  |  | 0.25 (≈ 0.652 µM) | 1 (≈ 2.61 µM) | 2 (≈ 5.22 µM) | 16 (≈ 41.7 µM) | 8 (≈ 20.9 µM) | 1 (≈ 2.61 µM) | 16 (≈ 41.7 µM) | 8 (≈ 20.9 µM) |  | 0.25 (≈ 0.652 µM) | 4 (≈ 10.4 µM) | 4 (≈ 10.4 µM) | 0.12 (≈ 0.313 µM) | 0.12 (≈ 0.313 µM) | 0.12 (≈ 0.313 µM) | CCn1cc(C(=O)O)c(=O)c2cc(F)c(N3CCN(C)C(CF)C3)c(F)c21 (single isomer, unassigned) [Example 114, (-1-1-Ethyl-6,8-difluoro-7-[3-fluoromethyl)-4-methyl-1-piperazinyl]-1,4-dihydro-4-oxo-3-quinolinecarboxylic acid] |  |
| 0.5 (≈ 1.35 µM) | 0.25 (≈ 0.677 µM) | 0.25 (≈ 0.677 µM) | 0.12 (≈ 0.325 µM) | 0.25 (≈ 0.677 µM) | 8 (≈ 21.7 µM) | 8 (≈ 21.7 µM) | 0.5 (≈ 1.35 µM) | 16 (≈ 43.3 µM) | 4 (≈ 10.8 µM) | 2 (≈ 5.42 µM) | 2 (≈ 5.42 µM) | 32 (≈ 86.6 µM) | 32 (≈ 86.6 µM) |  |  |  | CCn1cc(C(=O)O)c(=O)c2c(F)c(F)c(N3CCNC(C)C3)c(F)c21 (stereo not drawn) [Example 91, 1-Ethyl-5,6,8-trifluoro-1,4-dihydro-7-(3-methyl-1-piperazinyl)-4-oxo-3-quinolinecarboxylic acid] |  |

The remaining lines, values behind:

| SMILES | MIC [1, 14] [µg/mL] | MIC [2, 15] [µg/mL] | MIC (Escherichia coli LL 311; [16]) [µg/mL] | MIC [3, 17] [µg/mL] | MIC [4, 18] [µg/mL] | MIC [5, 19] [µg/mL] | MIC [6, 20] [µg/mL] | MIC [7, 21] [µg/mL] | MIC [8, 22] [µg/mL] | MIC [9, 23] [µg/mL] | MIC [10, 24] [µg/mL] | MIC [11, 25] [µg/mL] | MIC [12, 26] [µg/mL] | MIC [13, 27] [µg/mL] | MIC ([1]; 18 hours) [µg/mL] | MIC ([2]; 18 hours) [µg/mL] | MIC ([10]; 18 hours) [µg/mL] | other results |
| --- | --- | --- | --- | --- | --- | --- | --- | --- | --- | --- | --- | --- | --- | --- | --- | --- | --- | --- |
| CCn1cc(C(=O)O)c(=O)c2c(F)c(F)c(N3CCNC(c4ccsc4)C3)c(F)c21 (stereo not drawn) [Example 90, 1-Ethyl-5,6,8-trifluoro-1,4-dihydro-4-oxo-7-[3-(3-thienyl)-1-piperazinyl]-3-quinolinecarboxylic acid] | 0.25 (≈ 0.572 µM) | 0.25 (≈ 0.572 µM) | 0.25 (≈ 0.572 µM) | 0.25 (≈ 0.572 µM) | 1 (≈ 2.29 µM) | 32 (≈ 73.2 µM) | 16 (≈ 36.6 µM) | 1 (≈ 2.29 µM) | 16 (≈ 36.6 µM) | 1 (≈ 2.29 µM) | 0.25 (≈ 0.572 µM) | 0.25 (≈ 0.572 µM) | 8 (≈ 18.3 µM) | 8 (≈ 18.3 µM) |  |  |  |  |
| CCn1cc(C(=O)O)c(=O)c2cc(F)c(N3CCNC(C(C)(F)F)C3)c(F)c21 (stereo not drawn) [Example 117] | 0.06 (≈ 0.149 µM) | 0.12 (≈ 0.299 µM) | 0.12 (≈ 0.299 µM) | 0.25 (≈ 0.623 µM) | 0.5 (≈ 1.25 µM) | 8 (≈ 19.9 µM) | 4 (≈ 9.97 µM) | 0.25 (≈ 0.623 µM) | 8 (≈ 19.9 µM) | 2 (≈ 4.98 µM) | 0.5 (≈ 1.25 µM) | 0.5 (≈ 1.25 µM) | 8 (≈ 19.9 µM) | 8 (≈ 19.9 µM) |  |  |  |  |
| CCn1cc(C(=O)O)c(=O)c2cc(F)c(N3CCN(C)C(CF)C3)c(F)c21 (single isomer, unassigned; (+)) [Example 115, (+)-1-Ethyl-6,8-difluoro-7-[3-(fluoromethyl)-4-methyl-1-piperazinyl]-1,4-dihydro-4-oxo-3-quinolinecarboxylic acid] |  |  |  |  |  |  |  |  |  |  |  |  |  |  | 0.25 (≈ 0.652 µM) | 0.5 (≈ 1.3 µM) | 0.5 (≈ 1.3 µM) | MIC (Escherichia coli LL 311; 18 hours): 0.5 µg/mL (≈ 1.3 µM); MIC ([3]; 18 hours): 1 µg/mL (≈ 2.61 µM); MIC ([4]; 18 hours): 2 µg/mL (≈ 5.22 µM); MIC ([5]; 18 hours): 16 µg/mL (≈ 41.7 µM); MIC ([6]; 18 hours): 8 µg/mL (≈ 20.9 µM); MIC ([7]; 18 hours): 2 µg/mL (≈ 5.22 µM); MIC ([8]; 18 hours): 32 µg/mL (≈ 83.5 µM); MIC ([9]; 18 hours): 8 µg/mL (≈ 20.9 µM); MIC ([11]; 18 hours): 0.5 µg/mL (≈ 1.3 µM); MIC ([12]; 18 hours): 8 µg/mL (≈ 20.9 µM); MIC ([13]; 18 hours): 8 µg/mL (≈ 20.9 µM) |
